The source of these data is US20110183969A1, “ANTIFUNGAL COMBINATION THERAPY” (priority 2008, published 2011).

Holding throughout (type): cell-based
In assay [1] the test system is Aspergillus fumigatus AF293. As to the kind of experiment: MIC (YAG medium). The note with it: YAG medium, MIC banded into grades, AF293; for MIC: Aspergillus fumigatus, read-out: MIC A. fumigatus (grade). In outline:
(§1)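 Spores harvested from 5-day Sabouraud agar cultures were diluted in YAG medium (1% glucose, 1% ammonium chloride, 0.5% yeast extract) to final inocula of 1-2×10^4 cfu/mL and exposed to doubling dilutions of compound (50-0.05 mg/L). After 24 hrs at 35° C, OD485 was read; MIC is the lowest concentration giving >70% growth inhibition versus drug-free control.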

Another assay has as its system Aspergillus terreus AT49. As to the kind of experiment: MIC (YAG medium). Conditions: YAG medium, MIC banded into grades, AT49; for MIC: Aspergillus terreus, read-out: MIC A. terreus 49 (grade). The essentials: as §1
Assay [2] relates to Aspergillus fumigatus AF210. The assay is described as follows: MIC (YAG medium). Conditions: YAG medium, MIC banded into grades, AF210; for MIC: Aspergillus fumigatus, read-out: MIC A. fumigatus 210 (grade). In outline: as §1
Another assay concerns Aspergillus terreus AT4. As to the kind of experiment: MIC (YAG medium). The note with it: YAG medium, MIC banded into grades, AT4; for MIC: Aspergillus terreus, read-out: MIC A. terreus (grade). In outline: as §1
The subject of the next assay is Aspergillus niger. The assay is described as follows: MIC (YAG medium). The note with it: YAG medium, MIC banded into grades; for MIC: Aspergillus niger, read-out: MIC A. niger (grade). In outline:
as §1

The next assay deals with Aspergillus flavus. The assay is described as follows: MIC (YAG medium). Conditions: YAG medium, MIC banded into grades; for MIC: Aspergillus flavus, read-out: MIC A. flavus (grade). The essentials:
as §1

A further assay relates to Fusarium solani FS2. The assay is described as follows: 24 hr Fusarium solani MIC (RPMI medium, FS2). Conditions: banded into grades. How it is done:
Between 1 and 5 mgs of compound were accurately weighed out into a sterile Eppendorf tube. The compound was dissolved in DMSO to give a solution containing 5 mg/mL. Tubes were stored at −20° C. until required.
On the day of testing thawed solutions were vortex mixed to ensure homogeneity. 30 μL of solution was removed and added to 570 μL of sterile water in a separate sterile Eppendorf The thoroughly mixed solution was used to prepare a series of doubling dilutions in water, in a deep well plate. […] replicate plates were prepared using a Minitrak by aspirating 20 μL from each well into eleven clear polystyrene 96 well plates.
Spores of Aspergillus spp. (Aspergillus fumigatus [two strains], Aspergillus terreus [two strains], Aspergillus niger and Aspergillus flavus) were harvested from cultures grown on Sabarauds agar for 5 days, and resuspended in PBS/Tween 80 to approx 1×10^7 cfu/mL. Other filamentous fungi (Absidia corymbifera, Fusarium solani, Rhizomucor, Scedosporium spp., Trichophyton spp.), were grown on Sabarauds agar for 2-10 days and spores/hyphae resuspended in PBS/Tween to give approx 1×10^7 cfu/mL. Candida species (Candida albicans, Candida glabrata, Candida krusei, Candida parapsilosis and Candida tropicalis) were grown on Sabarauds agar, cells were harvested from the agar using a sterile loop and resuspended in PBS/Tween 80 to approx 1×10^6 cfu/mL. Each organism suspension was diluted in RPMI medium, containing 2% glucose and 0.135 M MOPS buffer (pH 7.0) to 0.5−2×10^4 cfu/mL for Aspergillus spp. and other filamentous fungi and 0.5-2×10^3 cfu/mL for yeast. 80 μL of an organism suspension was added to each well of the plate containing drug dilutions.
This produced MIC plates with a drug range 50-0.05 mg/L and organism inocula of 1-2×10^4 cfu/mL for Aspergillus spp. and other filamentous fungi and 1-2×10^3 cfu/mL for yeasts. All plates were incubated for 24-48 hrs at 35° C. Growth was assessed by monitoring the optical density at 485 nm for each well. The MIC of a compound is the lowest drug concentration that inhibits growth of an organism by >80% compared with a drug free control. MICs are recorded as mg/L. Other growth media can be used for susceptibility testing, and the activity of the described compounds can also be assessed in a medium comprising 1% glucose, 1% ammonium chloride and 0.5% yeast extract (YAG medium). To perform MIC tests in this medium, dilutions of compounds are prepared in microtitre plates as described above. Fungal strains to be tested are grown and harvested in an identical manner to that described above, each organism suspension is then diluted in YAG medium to 0.5-2×10^4 cfu/mL for Aspergillus spp. and other filamentous fungi and 0.5-2×10^3 cfu/mL for yeast. 80 μL of an organism suspension was added to each well of the plate containing drug dilutions. This produced MIC plates with a drug range 50-0.05 mg/L and organism inocula of 1-2×10^4 cfu/mL for Aspergillus spp. and other filamentous fungi and 1-2×10^3 cfu/mL for yeasts. All plates were incubated for 24 hrs at 35° C. Growth was assessed by monitoring the optical density at 485 nm for each well. The MIC of a compound is the lowest drug concentration that inhibits growth of an organism by >70% compared with a drug free control. MICs are recorded as mg/L. In cases where the MIC of an organism is […] mg/L the MIC is repeated using a concentration range of 0.5-0.0005 mg/L. MIC tests in YAG medium have more clear-cut endpoints and have slightly lower MICs than those performed in RPMI medium.
24 hr Fusarium solani MIC Results (RPMI Medium, FS2): […]

Structures are written as SMILES. In brackets after ≈: the same amount, converted by molar mass. Where two headings read alike, the source gives them in different places. Where only a bound is given, the exact number is not on record here.

In the case of `CC(C)c1cc(NC(=O)C(=O)c2c(-c3ccccc3)cc3ccccn23)ccc1C(=O)OCCn1ccnc1C(C)C` [Example 13, 2-Isopropyl-4-[2-oxo-2-(2-phenyl-indolizin-3-yl)-acetylamino]-benzoic acid 2-(2-isopropyl-imidazol-1-yl)-ethyl ester], the MIC in assay [1] is less than 1 µg/mL; in the assay with Aspergillus terreus AT49, less than 1 µg/mL; in assay [2] it was 1 to 10 µg/mL (≈ 1.78 to 17.8 µM); in the assay with Aspergillus terreus AT4, 1 to 10 µg/mL (≈ 1.78 to 17.8 µM); with Aspergillus niger, greater than 10 µg/mL; with Aspergillus flavus, less than 1 µg/mL. In addition, in the assay on Fusarium solani FS2 (read-out: MIC), the MIC was in the range of 1 to 10 µg/mL (≈ 1.78 to 17.8 µM).

In the case of `CC1CN(C2CCN(c3ccc(NC(=O)C(=O)c4c(-c5ccccc5)cc5ccccn45)cc3)CC2)CC(C)O1` (stereo not drawn) [Example 24, N-{4-[4-(2,6-Dimethyl-morpholin-4-yl)-piperidin-1-yl]-phenyl}-2-oxo-2-(2-phenyl-indolizin-3-yl)-acetamide], the MIC (in assay [1]; in the assay with Aspergillus terreus AT49; in assay [2]; in the assay on Aspergillus terreus AT4; in the assay with Aspergillus niger; in the assay with Aspergillus flavus) was less than 1 µg/mL each time. The MIC with Fusarium solani FS2 (read-out: MIC) was in the range of 1 to 10 µg/mL (≈ 1.86 to 18.6 µM).

Regarding `C=C1CCN(c2ccc(NC(=O)C(=O)c3c(-c4ccccc4)cc4ccccn34)cc2)CC1` [Example 3, N-[4-(4-methylene-piperidin-1-yl)-phenyl]-2-oxo-2-(2-phenyl-indolizin-3yl) acetamide], the “MIC A. fumigatus (grade)” value in assay [1] was 3 (A grade of 3 represents an MIC of less than 1 mg/L). For the same compound, in the assay with Aspergillus terreus AT49, the “MIC A. terreus 49 (grade)” value was 3 (A grade of 3 represents an MIC of less than 1 mg/L). Moreover, the “MIC A. fumigatus 210 (grade)” value in assay [2] is 3 (A grade of 3 represents an MIC of less than 1 mg/L). In addition, the “MIC A. terreus (grade)” value in the assay with Aspergillus terreus AT4 is reported as 3 (A grade of 3 represents an MIC of less than 1 mg/L). Besides, the “MIC A. niger (grade)” value in the assay with Aspergillus niger is listed as 3 (A grade of 3 represents an MIC of less than 1 mg/L). Moreover, the “MIC A. flavus (grade)” value against Aspergillus flavus was 3 (A grade of 3 represents an MIC of less than 1 mg/L). Also, the MIC with Fusarium solani FS2 is 3 (A grade of 3 represents an MIC of less than 1 mg/L).

As for `Cc1cccc(N2CCN(c3ccc(NC(=O)C(=O)c4c(-c5ccccc5)cc5ccccn45)cc3)CC2)n1` [Example 43, N-{4-[4-(6-Methyl-pyridin-2-yl)-piperazin-1-yl]-phenyl}-2-oxo-2-(2-phenyl-indolizin-3-yl)-acetamide], the MIC (in assay [1]; in the assay on Aspergillus terreus AT49; in assay [2]; with Aspergillus terreus AT4; in the assay with Aspergillus niger; in the assay with Aspergillus flavus) was less than 1 µg/mL each time.

For `CC(C)c1ncc(C(C)(C)c2ccc(NC(=O)C(=O)c3c(-c4ccccc4)cc4ccccn34)cc2)n1C` [Example 17, N-{4-[1-(2-Isopropyl-3-methyl-3H-imidazol-4-yl)-1-methyl-ethyl]-phenyl}-2-oxo-2-(2-phenyl-indolizin-3-yl)-acetamide], the MIC in assay [1] was greater than 10 µg/mL; in the assay with Aspergillus terreus AT49 it was 1 to 10 µg/mL (≈ 1.98 to 19.8 µM); in assay [2] it was greater than 10 µg/mL; in the assay with Aspergillus terreus AT4, 1 to 10 µg/mL (≈ 1.98 to 19.8 µM); with Aspergillus niger it was 1 to 10 µg/mL (≈ 1.98 to 19.8 µM); in the assay on Aspergillus flavus it was greater than 10 µg/mL.

As for `CC(C)c1nc(C(C)(C)c2cccc(NC(=O)C(=O)c3c(-c4ccccc4)cc4ccccn34)c2)cn1C` [Example 14, N-{3-[1-(2-Isopropyl-1-methyl-1H-imidazol-4-yl)-1-methyl-ethyl]-phenyl}-2-oxo-2-(2-phenyl-indolizin-3-yl)-acetamide], the MIC in assay [1] was greater than 10 µg/mL; with Aspergillus terreus AT49, 1 to 10 µg/mL (≈ 1.98 to 19.8 µM); in assay [2] it was greater than 10 µg/mL; in the assay on Aspergillus terreus AT4 it was 1 to 10 µg/mL (≈ 1.98 to 19.8 µM); in the assay on Aspergillus niger, greater than 10 µg/mL; in the assay on Aspergillus flavus, 1 to 10 µg/mL (≈ 1.98 to 19.8 µM).

On to `Cc1cc(C)nc(CNc2ccc(NC(=O)C(=O)c3c(-c4ccccc4)cc4ccccn34)cc2)c1` [Example 91, N-{4-[(4,6-Dimethyl-pyridin-2-ylmethyl)-amino]-phenyl}-2-oxo-2-(2-phenyl-indolizin-3-yl)-acetamide], for which the MIC (in assay [1]; in the assay with Aspergillus terreus AT49; in assay [2]; in the assay with Aspergillus terreus AT4; in the assay with Aspergillus niger; in the assay with Aspergillus flavus) was less than 1 µg/mL throughout.

For `O=C(Nc1cnccc1N1CCN(Cc2cccs2)CC1)C(=O)c1c(-c2ccccc2)cc2ccccn12` [Example 37, 2-Oxo-2-(2-phenyl-indolizin-3-yl)-N-[4-{4-thiophen-2-ylmethyl-piperazin-1-yl}-pyridine-3-yl]-acetamide], the MIC (in assay [1]; in the assay on Aspergillus terreus AT49; in assay [2]; in the assay with Aspergillus terreus AT4; in the assay on Aspergillus niger; with Aspergillus flavus) was less than 1 µg/mL throughout.

In the case of `Cc1ccnc(N2CCN(c3ccc(NC(=O)C(=O)c4c(-c5ccccc5)cc5ccccn45)cc3)CC2)c1` [Example 49, N-{4-[4-(4-Methyl-pyridin-2-yl)-piperazin-1-yl]-phenyl}-2-oxo-2-(2-phenyl-indolizin-3-yl)-acetamide], the MIC (in assay [1]; in the assay with Aspergillus terreus AT49; in assay [2]; with Aspergillus terreus AT4; in the assay on Aspergillus niger; with Aspergillus flavus) was less than 1 µg/mL in each case.

Turning to `CC(C)c1nccn1CCOC(=O)C(C)(C)c1ccc(NC(=O)C(=O)c2c(-c3ccccc3)cc3ccccn23)cc1` [Example 18, 2-methyl-2-{4-[2-oxo-2-(2-phenyl-indolizin-3-yl)-acetylamino]-phenyl}-propionic acid 2-(2-isopropyl-imidazol-1-yl)-ethyl ester], the MIC is greater than 10 µg/mL in assay [1]; 1 to 10 µg/mL (≈ 1.78 to 17.8 µM) in the assay with Aspergillus terreus AT49; greater than 10 µg/mL in assay [2]; greater than 10 µg/mL with Aspergillus terreus AT4; greater than 10 µg/mL with Aspergillus niger; greater than 10 µg/mL in the assay on Aspergillus flavus.

Consider `Cc1cc(C)nc(N2CCN(c3ccc(NC(=O)C(=O)c4c(-c5ccccc5)cc5ccccn45)cc3C)CC2)c1` [Example 82, N-{4-[4-(4,6-Dimethyl-pyridin-2-yl)-piperazin-1-yl]-3-methyl-phenyl}-2-oxo-2-(2-phenyl-indolizin-3-yl)-acetamide], for which the MIC (in assay [1]; in the assay on Aspergillus terreus AT49; in assay [2]; in the assay on Aspergillus terreus AT4; with Aspergillus niger; in the assay on Aspergillus flavus) was less than 1 µg/mL each time.

As to `O=C(Nc1ccc(C(=O)OC2CCOCC2)c(O)c1)C(=O)c1c(-c2ccccc2)cc2ccccn12` [Example 11, 2-hydroxy-4-[2-oxo-2-(2-phenyl-indolizin-3-yl)-acetylamino]-benzoic acid tetrahydro-pyran-4-yl ester], the MIC (in assay [1]; in the assay on Aspergillus terreus AT49; in assay [2]; in the assay on Aspergillus terreus AT4; in the assay on Aspergillus niger; in the assay on Aspergillus flavus) was less than 1 µg/mL throughout.
